Source: EP2844225B1, “AVERMECTIN POUR-ON FORMULATION WITH REDUCED WITHDRAWAL TIME” (Norbrook Laboratories Limited, priority 2012, dated 2013)
Where “and” joins values, the source holds several entries; their conditions need not be identical. Equal entries are not always repeated.

Test: Plasma levels of eprinomectin in cattle after topical pour-on administration (HPLC with fluorescence detection)
Settings: for Plasma concentration of eprinomectin: 0.5 mg/kg bodyweight, individual animals
Method: Twenty beef cattle of mixed gender and aged approximately between 10-20 months at the time of selection were used to determine the levels of eprinomectin in plasma following topical administration of the composition set forth in Table 1 below at a dose rate of 0.5mg/kg of eprinomectin.
The composition was administered along the midline of the back in a narrow strip between the withers and the tailhead using 60 ml syringes graduated to 1 ml. […] Blood samples were collected from each animal by venipuncture from the jugular vein using suitably labelled 9ml heparinised vacutainers. Following collection, samples were placed on ice protected from light under black cover prior to centrifugation. After centrifugation at 4500 revolutions per minute (RPM) for 5 minutes, the plasma was subsampled into 3 amber cryovials (-1ml plasma/cryovial). Plasma samples were stored at <-20°C until assayed. All samples were assayed for the determination of eprinomectin content, measured as eprinomectin B 1 a (hereafter referred to as eprinomectin) by HPLC.

[1] = bovine, in vivo, topical or ocular, 0.5 mg/kg

For `CC[C@H](C)[C@H]1O[C@]2(C=C[C@@H]1C)C[C@@H]1C[C@@H](C/C=C(\C)[C@@H](O[C@H]3C[C@H](OC)[C@@H](O[C@H]4C[C@H](OC)[C@H](NC(C)=O)[C@H](C)O4)[C@H](C)O3)[C@@H](C)/C=C/C=C3\CO[C@@H]4[C@H](O)C(C)=C[C@@H](C(=O)O1)[C@]34O)O2` [eprinomectin], the AUC [1] was 7840 ± 2700 ng·h/mL, the Cmax [1] was 45.5 ± 18.4 ng/mL and the Tmax [1] was 96 h. The concentration at 24 h (bovine, in vivo, topical or ocular, 0.5 mg/kg, mean plasma concentrations ± SD, cattle, topical, 24 hours, mean of all animals) was 14.3 ± 5.09 ng/mL, the concentration at 240 h (bovine, in vivo, topical or ocular, 0.5 mg/kg, mean plasma concentrations, cattle, topical, 240 hours post administration, mean ± SD) was 15 ± 6.69 ng/mL and the concentration at 408 h (bovine, in vivo, topical or ocular, 0.5 mg/kg, mean plasma concentrations, cattle, topical, 408 hours, mean ± SD) was 2.9 ± 1.15 ng/mL. The “Plasma concentration of eprinomectin” value (cattle, topical, time point 0 hrs (pre-treatment)) was <1.00 ng/mL, the “Plasma concentration of eprinomectin” value (cattle, topical, time point 24 hrs, 0.5 mg/kg, 1440 min) was 17.6 ng/mL and 16.9 ng/mL and 20.2 ng/mL and 10.2 ng/mL and 14.6 ng/mL and 6.61 ng/mL and 5.98 ng/mL and the “Plasma concentration of eprinomectin” value (cattle, topical, time point 48 hrs, 0.5 mg/kg, 2880 min) was 24.7 ng/mL and 36.7 ng/mL and 27.7 ng/mL and 23.5 ng/mL and 26.7 ng/mL and 12.7 ng/mL and 8.29 ng/mL. For the same compound, the “Plasma concentration of eprinomectin” value (cattle, topical, time point 72 hrs, 0.5 mg/kg, 4320 min) was 30.3 ng/mL and 49.8 ng/mL and 30.1 ng/mL and 39.1 ng/mL and 36.9 ng/mL and 17.4 ng/mL and 13.5 ng/mL, the “Plasma concentration of eprinomectin” value (cattle, topical, time point 96 hrs, 0.5 mg/kg, 5760 min) was 32.2 ng/mL and 56.9 ng/mL and 36.1 ng/mL and 38.5 ng/mL and 45.3 ng/mL and 19.9 ng/mL and the “Plasma concentration of eprinomectin” value (cattle, topical, time point 120 hrs, 0.5 mg/kg, 7200 min) was 24.8 ng/mL and 76.5 ng/mL and 27.0 ng/mL and 33.8 ng/mL and 44.7 ng/mL and 25.2 ng/mL. The “Plasma concentration of eprinomectin” value (cattle, topical, time point 144 hrs, 0.5 mg/kg, 8640 min) was 20.5 ng/mL and 71.7 ng/mL and 24.5 ng/mL and 40.6 ng/mL and 44.7 ng/mL and 28.3 ng/mL, the “Plasma concentration of eprinomectin” value (cattle, topical, time point 192 hrs, 0.5 mg/kg, 11520 min) was 10.8 ng/mL and 44.1 ng/mL and 15.8 ng/mL and 31.1 ng/mL and 38.1 ng/mL and 21.6 ng/mL and the “Plasma concentration of eprinomectin” value (cattle, topical, time point 216 hrs, 0.5 mg/kg, 12960 min) was 9.41 ng/mL and 31.1 ng/mL and 13.4 ng/mL and 31.7 ng/mL and 31.2 ng/mL and 16.8 ng/mL and 14.4 ng/mL. For the same compound, the “Plasma concentration of eprinomectin” value (cattle, topical, time point 240 hrs, 0.5 mg/kg, 14400 min) was 7.12 ng/mL and 21.7 ng/mL and 10.3 ng/mL and 29.2 ng/mL and 24.3 ng/mL and 13.3 ng/mL and 11.2 ng/mL, the “Plasma concentration of eprinomectin” value (cattle, topical, time point 312 hrs, 0.5 mg/kg, 18720 min) was 4.14 ng/mL and 10.7 ng/mL and 4.53 ng/mL and 14.5 ng/mL and 10.3 ng/mL and 8.49 ng/mL and 3.76 ng/mL and the “Plasma concentration of eprinomectin” value (cattle, topical, time point 336 hrs, 0.5 mg/kg, 20160 min) was 2.67 ng/mL and 6.98 ng/mL and 3.27 ng/mL and 10.8 ng/mL and 8.74 ng/mL and 7.94 ng/mL and 3.94 ng/mL. For the same compound, the “Plasma concentration of eprinomectin” value (cattle, topical, time point 360 hrs, 0.5 mg/kg, 21600 min) was 1.90 ng/mL and 5.46 ng/mL and 2.21 ng/mL and 8.23 ng/mL and 7.19 ng/mL and 5.54 ng/mL and 3.37 ng/mL and the “Plasma concentration of eprinomectin” value (cattle, topical, time point 408 hrs, 0.5 mg/kg, 24480 min) was 1.45 ng/mL and 2.79 ng/mL and 1.28 ng/mL and 4.89 ng/mL and 4.57 ng/mL and 4.06 ng/mL and 2.13 ng/mL.
